Experimental data from ChEMBL document CHEMBL4706653, “Ultra-short lipopeptides against gram-positive bacteria while alleviating antimicrobial resistance” (Eur J Med Chem, 2021).
Converted amounts (≈) assume the structure as drawn. Residues, ends and D or L forms follow the SMILES beside them. *: point of attachment. Myristoyl = CCCCCCCCCCCCCC(=O)*; Lauroyl = CCCCCCCCCCCC(=O)*; Decanoyl = CCCCCCCCCC(=O)*

What was measured:
Staphylococcus aureus [1] = experiment: Antimicrobial activity against methicillin-resistant Staphylococcus aureus 113 after 18 hrs by broth microdilution method; assay type: functional
Bacillus subtilis = experiment: Antimicrobial activity against Bacillus subtilis ATCC 23857 after 18 hrs by broth microdilution method; assay type: functional
Staphylococcus aureus [2] = experiment: Antimicrobial activity against methicillin-resistant Staphylococcus aureus 75 after 18 hrs by broth microdilution method; assay type: functional
[3] = test system: Staphylococcus epidermidis; experiment: Antimicrobial activity against Staphylococcus epidermidis ATCC 12228 after 18 hrs by broth microdilution method; assay type: functional
[4] = Therapeutic index, ratio of MHC for mouse RBC to geometric mean of peptide MIC for Staphylococcus epidermidis ATCC 12228; assay type: toxicity; conditions: pooled result: one value given for 6 cell lines, strains, targets or settings, read-out: TI
Staphylococcus aureus [5] = experiment: Antimicrobial activity against Staphylococcus aureus ATCC 25923 after 18 hrs by broth microdilution method; assay type: functional
Staphylococcus aureus [6] = experiment: Antimicrobial activity against Staphylococcus aureus ATCC 29213 after 18 hrs by broth microdilution method; assay type: functional
Erythrocyte = experiment: Hemolytic activity against mouse erythrocytes measured after 1 hr; assay type: ADME, cell-based

Question: With `CCCCCCCCCC(=O)N[C@@H](CCCNC(=N)N)C(=O)N[C@@H](CCCNC(=N)N)C(=O)N[C@@H](CCCNC(=N)N)C(N)=O` (Decanoyl-Arg-Arg-Arg-NH2) as the compound, how does the MIC (Staphylococcus aureus [1]) read?
Answer: 128 µM (≈ 81.9 µg/mL)

Question: And the MIC (Bacillus subtilis)?
Answer: 32 µM (≈ 20.5 µg/mL)

Question: What about the MIC (Staphylococcus aureus [2]) of the same compound?
Answer: 128 µM (≈ 81.9 µg/mL)

Question: And the MIC [3]?
Answer: 64 µM (≈ 41 µg/mL)

Question: And the selectivity ratio [4]?
Answer: 5.05

Question: What about the MIC (Staphylococcus aureus [5]) of the same compound?
Answer: 128 µM (≈ 81.9 µg/mL)

Question: And the MIC (Staphylococcus aureus [6])?
Answer: 128 µM (≈ 81.9 µg/mL)

Question: What about the MHC10 (Erythrocyte) of the same compound?
Answer: > 256 µM

Question: For `CCCCCCCCCC(=O)N[C@@H](CCCNC(=N)N)C(=O)N[C@@H](CCCNC(=N)N)C(=O)N[C@@H](Cc1c[nH]c2ccccc12)C(N)=O` (Decanoyl-Arg-Arg-Trp-NH2), which MIC (Staphylococcus aureus [1]) is on record?
Answer: 8 µM (≈ 5.36 µg/mL)

Question: And the MIC (Bacillus subtilis)?
Answer: 8 µM (≈ 5.36 µg/mL)

Question: And the MIC (Staphylococcus aureus [2])?
Answer: 16 µM (≈ 10.7 µg/mL)

Question: And the MIC [3]?
Answer: 16 µM (≈ 10.7 µg/mL)

Question: What about the selectivity ratio [4] of the same compound?
Answer: 32

Question: What about the MIC (Staphylococcus aureus [5]) of the same compound?
Answer: 32 µM (≈ 21.4 µg/mL)

Question: And the MIC (Staphylococcus aureus [6])?
Answer: 16 µM (≈ 10.7 µg/mL)

Question: What about the MHC10 (Erythrocyte) of the same compound?
Answer: > 256 µM

Question: What does the source list for `CCCCCCCCCC(=O)N[C@@H](CCCNC(=N)N)C(=O)N[C@@H](Cc1c[nH]c2ccccc12)C(=O)N[C@@H](CCCNC(=N)N)C(N)=O` (Decanoyl-Arg-Trp-Arg-NH2)?
Answer: MIC (Staphylococcus aureus [1]): 16 µM (≈ 10.7 µg/mL); MIC (Bacillus subtilis): 16 µM (≈ 10.7 µg/mL); MIC (Staphylococcus aureus [2]): 16 µM (≈ 10.7 µg/mL); MIC [3]: 16 µM (≈ 10.7 µg/mL); selectivity ratio [4]: 3.43; MIC (Staphylococcus aureus [5]): 16 µM (≈ 10.7 µg/mL); MIC (Staphylococcus aureus [6]): 32 µM (≈ 21.4 µg/mL); MHC10 (Erythrocyte): > 256 µM

Question: Which results are given for `CCCCCCCCCC(=O)N[C@@H](CCCNC(=N)N)C(=O)N[C@@H](Cc1c[nH]c2ccccc12)C(=O)N[C@@H](Cc1c[nH]c2ccccc12)C(N)=O` (Decanoyl-Arg-Trp-Trp-NH2)?
Answer: MIC (Staphylococcus aureus [1]): 8 µM (≈ 5.6 µg/mL); MIC (Bacillus subtilis): 16 µM (≈ 11.2 µg/mL); MIC (Staphylococcus aureus [2]): 8 µM (≈ 5.6 µg/mL); MIC [3]: 32 µM (≈ 22.4 µg/mL); selectivity ratio [4]: 27.4; MIC (Staphylococcus aureus [5]): 32 µM (≈ 22.4 µg/mL); MIC (Staphylococcus aureus [6]): 16 µM (≈ 11.2 µg/mL); MHC10 (Erythrocyte): > 256 µM

Question: What does the source list for `CCCCCCCCCC(=O)N[C@@H](Cc1c[nH]c2ccccc12)C(=O)N[C@@H](CCCNC(=N)N)C(=O)N[C@@H](CCCNC(=N)N)C(N)=O` (Decanoyl-Trp-Arg-Arg-NH2)?
Answer: MIC (Staphylococcus aureus [1]): 16 µM (≈ 10.7 µg/mL); MIC (Bacillus subtilis): 8 µM (≈ 5.36 µg/mL); MIC (Staphylococcus aureus [2]): 16 µM (≈ 10.7 µg/mL); MIC [3]: 8 µM (≈ 5.36 µg/mL); selectivity ratio [4]: 21.3; MIC (Staphylococcus aureus [5]): 8 µM (≈ 5.36 µg/mL); MIC (Staphylococcus aureus [6]): 16 µM (≈ 10.7 µg/mL); MHC10 (Erythrocyte): 256 µM

Question: Which results are given for `CCCCCCCCCCCC(=O)N[C@@H](CCCNC(=N)N)C(=O)N[C@@H](CCCNC(=N)N)C(=O)N[C@@H](CCCNC(=N)N)C(N)=O` (Lauroyl-Arg-Arg-Arg-NH2)?
Answer: MIC (Staphylococcus aureus [1]): 16 µM (≈ 10.7 µg/mL); MIC (Bacillus subtilis): 8 µM (≈ 5.34 µg/mL); MIC (Staphylococcus aureus [2]): 32 µM (≈ 21.4 µg/mL); MIC [3]: 16 µM (≈ 10.7 µg/mL); selectivity ratio [4]: 25.6; MIC (Staphylococcus aureus [5]): 32 µM (≈ 21.4 µg/mL); MIC (Staphylococcus aureus [6]): 16 µM (≈ 10.7 µg/mL); MHC10 (Erythrocyte): > 256 µM

Question: For `CCCCCCCCCCCC(=O)N[C@@H](CCCNC(=N)N)C(=O)N[C@@H](Cc1c[nH]c2ccccc12)C(=O)N[C@@H](CCCNC(=N)N)C(N)=O` (Lauroyl-Arg-Trp-Arg-NH2), which MIC (Staphylococcus aureus [1]) is on record?
Answer: 4 µM (≈ 2.79 µg/mL)

Question: What about the MIC (Bacillus subtilis) of the same compound?
Answer: 8 µM (≈ 5.58 µg/mL)

Question: What about the MIC (Staphylococcus aureus [2]) of the same compound?
Answer: 4 µM (≈ 2.79 µg/mL)

Question: And the MIC [3]?
Answer: 8 µM (≈ 5.58 µg/mL)

Question: And the selectivity ratio [4]?
Answer: 8

Question: What about the MIC (Staphylococcus aureus [5]) of the same compound?
Answer: 16 µM (≈ 11.2 µg/mL)

Question: What about the MIC (Staphylococcus aureus [6]) of the same compound?
Answer: 8 µM (≈ 5.58 µg/mL)

Question: And the MHC10 (Erythrocyte)?
Answer: 64 µM

Question: Which results are given for `CCCCCCCCCCCC(=O)N[C@@H](CCCNC(=N)N)C(=O)N[C@@H](Cc1c[nH]c2ccccc12)C(=O)N[C@@H](Cc1c[nH]c2ccccc12)C(N)=O` (Lauroyl-Arg-Trp-Trp-NH2)?
Answer: MIC (Staphylococcus aureus [1]): 8 µM (≈ 5.82 µg/mL); MIC (Bacillus subtilis): 64 µM (≈ 46.6 µg/mL); MIC (Staphylococcus aureus [2]): 8 µM (≈ 5.82 µg/mL); MIC [3]: 64 µM (≈ 46.6 µg/mL); selectivity ratio [4]: 12.8; MIC (Staphylococcus aureus [5]): 32 µM (≈ 23.3 µg/mL); MIC (Staphylococcus aureus [6]): 64 µM (≈ 46.6 µg/mL); MHC10 (Erythrocyte): > 256 µM

Question: For `CCCCCCCCCCCC(=O)N[C@@H](Cc1c[nH]c2ccccc12)C(=O)N[C@@H](CCCNC(=N)N)C(=O)N[C@@H](CCCNC(=N)N)C(N)=O` (Lauroyl-Trp-Arg-Arg-NH2), which MIC (Staphylococcus aureus [1]) is on record?
Answer: 4 µM (≈ 2.79 µg/mL)

Question: And the MIC (Bacillus subtilis)?
Answer: 8 µM (≈ 5.58 µg/mL)

Question: What about the MIC (Staphylococcus aureus [2]) of the same compound?
Answer: 8 µM (≈ 5.58 µg/mL)

Question: What about the MIC [3] of the same compound?
Answer: 8 µM (≈ 5.58 µg/mL)

Question: And the selectivity ratio [4]?
Answer: 8.73

Question: What about the MIC (Staphylococcus aureus [5]) of the same compound?
Answer: 8 µM (≈ 5.58 µg/mL)

Question: What about the MIC (Staphylococcus aureus [6]) of the same compound?
Answer: 8 µM (≈ 5.58 µg/mL)

Question: And the MHC10 (Erythrocyte)?
Answer: 64 µM

Question: For `CCCCCCCCCCCCCC(=O)N[C@@H](CCCNC(=N)N)C(=O)N[C@@H](CCCNC(=N)N)C(=O)N[C@@H](CCCNC(=N)N)C(N)=O` (Myristoyl-Arg-Arg-Arg-NH2), which MIC (Staphylococcus aureus [1]) is on record?
Answer: 8 µM (≈ 5.57 µg/mL)

Question: And the MIC (Bacillus subtilis)?
Answer: 8 µM (≈ 5.57 µg/mL)

Question: What about the MIC (Staphylococcus aureus [2]) of the same compound?
Answer: 8 µM (≈ 5.57 µg/mL)

Question: And the MIC [3]?
Answer: 8 µM (≈ 5.57 µg/mL)

Question: What about the selectivity ratio [4] of the same compound?
Answer: 6.86

Question: And the MIC (Staphylococcus aureus [5])?
Answer: 16 µM (≈ 11.1 µg/mL)

Question: What about the MIC (Staphylococcus aureus [6]) of the same compound?
Answer: 64 µM (≈ 44.5 µg/mL)

Question: And the MHC10 (Erythrocyte)?
Answer: 128 µM

Question: What does the source list for `CCCCCCCCCCCCCC(=O)N[C@@H](CCCNC(=N)N)C(=O)N[C@@H](CCCNC(=N)N)C(=O)N[C@@H](Cc1c[nH]c2ccccc12)C(N)=O` (Myristoyl-Arg-Arg-Trp-NH2)?
Answer: MIC (Staphylococcus aureus [1]): 2 µM (≈ 1.45 µg/mL); MIC (Bacillus subtilis): 8 µM (≈ 5.81 µg/mL); MIC (Staphylococcus aureus [2]): 2 µM (≈ 1.45 µg/mL); MIC [3]: 8 µM (≈ 5.81 µg/mL); selectivity ratio [4]: 6; MIC (Staphylococcus aureus [5]): 8 µM (≈ 5.81 µg/mL); MIC (Staphylococcus aureus [6]): 4 µM (≈ 2.9 µg/mL); MHC10 (Erythrocyte): 32 µM

Question: Which MIC (Staphylococcus aureus [1]) does the source give for `CCCCCCCCCCCCCC(=O)N[C@@H](CCCNC(=N)N)C(=O)N[C@@H](Cc1c[nH]c2ccccc12)C(=O)N[C@@H](CCCNC(=N)N)C(N)=O` (Myristoyl-Arg-Trp-Arg-NH2) here?
Answer: 4 µM (≈ 2.9 µg/mL)

Question: And the MIC (Bacillus subtilis)?
Answer: 8 µM (≈ 5.81 µg/mL)

Question: And the MIC (Staphylococcus aureus [2])?
Answer: 4 µM (≈ 2.9 µg/mL)

Question: What about the MIC [3] of the same compound?
Answer: 4 µM (≈ 2.9 µg/mL)

Question: And the selectivity ratio [4]?
Answer: 10.7

Question: What about the MIC (Staphylococcus aureus [5]) of the same compound?
Answer: 8 µM (≈ 5.81 µg/mL)

Question: What about the MIC (Staphylococcus aureus [6]) of the same compound?
Answer: 8 µM (≈ 5.81 µg/mL)

Question: And the MHC10 (Erythrocyte)?
Answer: 64 µM
